According to publication PMC12326358, “Effect of Quantitative Structural Properties and Drug Formulation in Four Cannabinoids (Cannabidiol, Cannabigerol, Cannabichromene, and Cannabinol) on Their Lymphatic Transport after Enteral Administration in Rats” (Molecular Pharmaceutics, 2025):
Where “and” joins values, the source holds several entries; their conditions need not be identical. Identical values can stand only once. Like-named read-outs stand apart in the source and are kept apart here.

Key:
[1] = man, cited from earlier work
[2] = assay type: physicochemical; settings: final nanoemulsion
Protocol: To test pharmacokinetic parameters for various cannabinoids, the self-emulsifying drug delivery system (SEDDS) was selected due to its facile preparation and as it has shown an enhanced absorption profile for CBD.1 However, prior to administration the oil phase was mixed with water forming nanoemulsion to decrease viscosity and facilitate application to rats. […]
formulation is in the paper referred to as nanoemulsion.
In general, the nanoemulsion was prepared as follows. First, the oil phase containing Propylene glycol monocaprylate (PGMC), surfactant Kolliphor EL (CR-EL), co-surfactant and cannabinoid was prepared and thoroughly homogenized. As co-surfactants, we tested three compounds:
Diethylene glycol monoethyl ether (TRSC) or Ethyl alcohol (ETOH) or Propylene glycol (PRGL).
Next, four parts of water with respect to one part of oil (by weight) were added dropwise to the oil mixture at mild stirring. The stability of prepared nanoemulsions (initially without cannabinoids) was evaluated using dynamic light scattering (LS Instruments, Switzerland). […] and unstable samples, characterized by very high turbidity or phase separation, respectively, were not further analyzed. Optimization results are shown in the form of ternary diagrams for three tested co-surfactants (TRSC, ETOH, PRGL) in Fig. S1.
According to the manufacturer, CBD is most soluble in PGMC among other products.2 High solubility was also expected for other cannabinoids, thus PGMC was chosen as a suitable oil-phase base for nanoemulsion formulation in this study. Next, CR-EL was selected as a surfactant capable of forming nanoemulsions with PGMC in a wide range of concentrations (based on previous non-published experiments). To optimize the composition, stability and the size dependence of various emulsion mixtures were investigated for systems containing the aforementioned components and selected co-surfactants – TRSC, ETOH and PRGL (without cannabinoids). According to the […]
with desirable sizes (Fig. S1). Furthermore, TRSC is a proven skin permeation enhancer and solubilizer. Moreover, as shown by Franceschinis et al., TRSC acted as an excellent absorption […]
enhancer for 4,6,4′trimethylangelicin during oral administration. […]
co-surfactant and solubilizer for the final formulation tested in the pharmacokinetic study.
The final composition of nanoemulsion was chosen based on the compromise between the cannabinoids' loading capacity and the used surfactant amount. The final formulation contained 50wt.% of CR-EL, 30wt.% of TRSC and 20wt.% of PGMC. Long-term stability for the optimized formulation was tested for two cannabinoid concentrations – 15 mg/ml and 30 mg/ml. Results are shown in Tab. S1. The size was below 30 nm even after 30 days for all cannabinoids at 15mg/ml […]
Although all formulations were stable over time and to avoid any colloid instability and cannabinoid decomposition, the water phase was added to the oil phase directly before application in pharmacokinetic study.

[3] = Log P measurement, octanol–water system; assay type: physicochemical
Protocol: There are only calculated log P values available for CBD, CBG, CBC and CBN (range 6.1–7.4). Therefore, log P was measured experimentally for all four cannabinoids during this study. The partition coefficient describes the distribution of a tested compound in a two-phase octanol–water system. It is defined as a ratio of concentrations of the un-ionized compound in octanol and water at equilibrium. Cannabinoids were weighed (2 mg) and dissolved in 2.5 mL of octanol, followed by the addition of 2.5 mL of deionized water. The mixture was shaken for 2 h and then allowed to separate for 24 h. Twenty μL of the aqueous (bottom) phase was transferred into an LC vial, diluted with 60 μL of an appropriate IS at a concentration of 30 ng/mL, and analyzed using the aforementioned UHPLC-MS/MS method. The experiment was repeated five times for each cannabinoid.
Due to the highly lipophilic character of cannabinoids, their concentration in the organic phase is several orders of magnitude higher than the concentration in the aqueous phase. As a result, the difference in the total amount of cannabinoids and the amount present in the organic phase is very small and falls within the experimental error of the analytical method. Therefore, log P values were calculated based on the measured cannabinoid concentration in the aqueous phase, while the concentration in the octanol phase was calculated from the initial amount of the cannabinoid used and its measured concentration in the aqueous phase. […] Due to the very low concentrations of CBD and CBC in the aqueous phase, which fell below the LOQ of both methods, we were unable to determine the log P for these two cannabinoids.

[4] = set-up: method as in published earlier (Table 1 footnote a); settings: nanoemulsion, IV, rats, 1 mg CBD, mean ± SD, ref published earlier (Table 1 footnote a), cited from earlier work
[5] = cited from earlier work; for absolute oral bioavailability: species not printed at place, ref reports published so far
[6] = dogs, oral; cited from earlier work
[7] = octanol–water, from measured aqueous phase concentration, lower bounds based on LOQ, n = 5, read-out: Log P

Compound | Tmax ([1]; oral administration) | DLS, 90° size ([2]; cannabinoid 15 mg/ml, 1 day) | DLS, 90° size ([2]; cannabinoid 15 mg/ml, 30 days) | DLS, 90° size ([2]; cannabinoid 30 mg/ml, 1 day) | DLS, 90° size ([2]; cannabinoid 30 mg/ml, 30 days) | logP [3, 7] | AUC(0-inf) ([4]; dose-normalized to 1 mg/kg) | T1/2 [4] | Vss [4] | Cmax ([4]; serum, dose-normalized to 1 mg/kg) | oral bioavailability ([5]; rats, lipid-free formulation) | oral bioavailability ([5]; rats, long-chain triglycerides-based formulation) | absolute oral bioavailability ([5]; sunflower oil-based microemulsion) | absolute oral bioavailability ([5]; sunflower oil) | oral bioavailability ([1]; estimated) | bioavailability increase when taken with food ([1]; oral) | average Tmax [6] | logP [3] | Tmax ([5]; rats, oral administration)
CCCCCc1cc(O)c2c(c1)OC(C)(CCC=C(C)C)C=C2 (stereo not shown) [CBC, cannabichromene] | 2 to 4 h | 25 nm | 25 nm | 40 nm | 34 nm | > 6.7 | – | – | – | – | – | – | – | – | – | – | – | – | –
C=C(C)[C@@H]1CCC(C)=C[C@H]1c1c(O)cc(CCCCC)cc1O [CBD, cannabidiol] | – | 26 nm | 26 nm | 200 nm | 222 nm | > 6.3 | 623 ± 141 ng·h/mL | 2.5 ± 0.5 h | 2.9 ± 1.1 L/kg | 845 ± 253 ng/mL | 8.5% and 8% | 22% | 25% | 14% | < 10% | up to 4 fold | – | – | –
CCCCCc1cc(O)c(C/C=C(\C)CCC=C(C)C)c(O)c1 [CBG, cannabigerol] | – | 31 nm | 32 nm | – | – | – | – | – | – | – | – | – | – | – | – | – | 0.75 h | 7.2 | –
CCCCCc1cc(O)c2c(c1)OC(C)(C)c1ccc(C)cc1-2 [CBN, cannabinol] | – | 27 nm | 27 nm | 67 nm | 68 nm | 6.2 | – | – | – | – | – | – | – | – | – | – | – | – | 1.5 to 3 h
